The subject of assay [1] is CD8 tumor infiltrating cells. In words: Flow cytometry / intracellular cytokine staining of tumor infiltrating CD8 T cells in PPSM tumor bearing animals. The class given is in vivo, mouse. Particulars: FIGS. 8I-8L. As to the method: (subcutaneous) injection once every 14 days.
Flow cytometry. Cells were incubated for 20 min on ice with e506 fixable viability dye and the following antibodies: […] (H57-597), CD4 (RM4-5), CD8 (53-6.7), CD44 (IM7), PD-1 (J43) and Thy1.1 (HIS51). Intracellular proteins Ki67 (SolA15), IFNγ (XMG1.2), TNFα (MP6-CT22), Nur77 (12.14) and Granzyme B (NGZB) were detected using the Fixation/Permeabilization Solution kit from BD Biosciences. All antibodies and viability dyes were purchased from eBioscience, Biolegend, or BD Biosciences. Data were collected with a Fortessa™ flow cytometer (BD Biosciences) and analyzed using FlowJo software (Tree Star). Unless noted otherwise in the figure legend, cells were gated through live/TCRβ+/CD8+ gates for analysis.
In vitro activation and intracellular cytokine staining.

A further assay relates to OTI T cells in the tumor. The assay is described as follows: Adoptive T cell therapy model: OT1 CD8 T cells in MCA-OVA tumor bearing RIP-mOVA animals.

Turning to `CNC(=O)c1ccc(N2C(=S)N(c3ccc(C#N)c(C(F)(F)F)c3)C(=O)C2(C)C)cc1F` [enzalutamide, 4-(3-(4-cyano-3-(trifluoromethyl)phenyl)-5,5-dimethyl-4-oxo-2-thioxoimidazolidin-I-yl)-2-fluoro-N-methyl benzamide], the “polyfunctionality of tumor-associated CD8 T cells” value in assay [1] is given as “insufficient to improve the polyfunctionality”. Besides, the “cytokine production in tumor specific T cells” value with OTI T cells in the tumor (FIGS. 10A-10C legend) is on record as “increased cytokine production”. For the same compound, the “IFNγ production of tumor-antigen specific CD8 T cells” value in the assay on OTI T cells in the tumor (female mice, FIG. 10C) is recorded as “increased”; in the assay on OTI T cells in the tumor (male mice, chemically castrated (degarelix), FIG. 10B) it was “increased”.
